These results are taken from patent publication US10702484B2, “Use of 3-(3-hydroxy-4-methoxy-phenyl)-1-(2,4,6-trihydroxy-phenyl) propan-1-one” (SYMRISE AG, priority 2016, dated 2020).

For experiment [1] the following is noted: J. Chem. Senses 1979, 4(1), 35-47; cited from earlier work.
The conditions of experiment [2]: in soft drinks; purity>90%; cited from earlier work.
For experiment [3], the system named is group of experts. As to the kind of experiment: Intensification of the sweet impression of a sugar solution (sensory panel rating). The class given is in vivo. The source says: In order to quantify the intensification of the sweet impression, in each case the sweetness of a 5% sucrose solution was compared by a group of experts with a specimen containing 5% sucrose and 1 ppm, 5 ppm, 7 ppm or 10 ppm of the hesperetin dihydrochalcone (I) to be used according to the invention (rating: 1 [not sweet] to 10 [extremely sweet]). For comparison issues, the intensification of the sweet impression containing with a specimen containing 5% sucrose and 10 ppm or 25 ppm deoxy hesperetin dihydrochalcone is also included.
For the assessment, i.e. calculation of the intensification (in %) of the sweet impression in each case the average values of the assessments of the group of experts for the sucrose solution and the specimen for comparison containing sucrose and hesperetin dihydrochalcone (I) or deoxy hesperetin dihydrochalcone were used.

Experiment [4] relates to group of experts. As to the kind of experiment: Modulation of the cooling-profile of WS-3 (sensory panel). Format: in vivo. To be noted: 1 ppm added to aqueous solution of 5 wt % sucrose and 4 ppm WS-3; n=5. The source says: A group of experts (n=5) evaluated the influence on the cooling profile of an aqueous solution containing 5 wt % sucrose and 4 ppm WS-3.
A further experiment deals with group of 30 experts. As to the kind of experiment: Intrinsic sweetness, two-alternative forced choice (2AFC) test. The class given is in vivo. The following applies: 10 ppm in water, α=0.05. The source says:
A group of 30 experts were asked in a two-alternative forced choice (2AFC) test to select the solution with the stronger sweet impression from a couple of solutions. The evaluated solutions-couples are selected from a group of solutions consisting of a solution of hesperetin dihydrochalcone (I) in water (20 ppm, 15 ppm, 12.5 ppm, and 10 ppm) and a 1.5 wt % aqueous sucrose solution.

The test system of experiment [5] is group of experts. As to the kind of experiment: Improvement of the taste profile of chicken flavour (sensory panel). Format: in vivo. The following applies: addition of 2 ppm; n=3. An excerpt: A group of experts (n=3) evaluated the influence on the taste profile of a chicken flavour with the typical descriptors of chicken meat note, boiled note, bony, light sour by the addition of 2 ppm hesperetin dihydrochalcone (I).

Experiment [6] has as its system group of experts. As to the kind of experiment: Modification of the sweet profile of a sucrose solution (sensory panel). The class given is in vivo. The following applies: for Beginning of sweet impression (<2 sec) / Overall sweet impression / Sugar full flavour and taste: n=12. The source says:
The taste profile of a 7 wt % aqueous sucrose solution was compared with by a group of experts (n=12) in each case with a specimen having an equivalent composition and additionally a 1.5% sucrose (B), 5 ppm, 7 ppm or 20 ppm hesperetin dihydrochalcone (I).

In experiment [7] the test system is group of experts. As to the kind of experiment: Bitter-reduction of a bitter substance solution (sensory panel rating). To be noted: for Bitter impression of bitter substance + compound (I) (average values): n=18. The class given is in vivo. An excerpt: In order to quantify the decrease (i.e. the masking or reduction) in bitter impression in a specimen, the bitterness of a solution containing different bitter tasting substances in specific concentrations was compared by a group of experts (n=18) in each case with a specimen having an equivalent composition and additionally a specific concentration of hesperetin dihydrochalcone (I) (rating: 1 [not bitter] to 100 [extremely bitter]).
For the assessment, i.e. the calculation of the reduction (in %) of the bitter impression in each case the average values of the assessments of the group of experts for the respective bitter substance solution and the bitter substance solution also containing 10 ppm hesperetin dihydrochalcone (I) were used (*sign.lev. α=0.05). For comparison issues, the calculation of the reduction (in %) of the bitter impression for the respective bitter substance solution containing deoxy hesperetin dihydrochalcone is also included.

For experiment [8] the following is noted: in the presence of acids; cited from earlier work.
The mark [9] stands for this setting: 5% sucrose + 10 ppm test substance.
[10] abbreviates: 5% sucrose + 10 ppm test substance, rating 1 to 10.
The mark [11] stands for this setting: 7 wt % aqueous sucrose solution.
Setting [12] is: 7% Sucrose-solution + 1.5% Sucrose (=8.5% sucrose solution).

For `COc1ccc(CCC(=O)c2c(O)cccc2O)cc1O` [dihydrochalcone (3)], in experiment [1], the “Taste (sweetening power) as presented in the publication” value was “tasteless”.
With `C=C1C[C@@]23CC[C@H]4[C@@](C)(CCC[C@@]4(C)C(=O)O[C@@H]4O[C@H](CO)[C@@H](O)[C@H](O)[C@H]4O)[C@@H]2CC[C@]1(O[C@@H]1O[C@H](CO)[C@@H](O)[C@H](O[C@@H]2O[C@H](CO)[C@@H](O)[C@H](O)[C@H]2O)[C@H]1O[C@@H]1O[C@H](CO)[C@@H](O)[C@H](O)[C@H]1O)C3` [rebaudioside A], the “Concentration necessary to achieve a sweetness corresponding to a concentration of sucrose of 10% by weight” value in experiment [2] is recorded as 400-600 ppm.
For `COc1ccc(CCC(=O)c2c(O)cc(O)cc2O)cc1O` [hesperetin dihydrochalcone (I), 3-(3-Hydroxy-4-methoxy-phenyl)-1-(2,4,6-trihydroxyphenyl)propan-1-one], the “Intensification of the sweet impression” value came out at 14.1% in the experiment on group of experts [3] (5% sucrose + 1 ppm test substance), 32.6% in the experiment with group of experts [3] (5% sucrose + 5 ppm test substance), 35.7% in the experiment on group of experts [3] (5% sucrose + 7 ppm test substance) and 38.6% in the experiment with group of experts [3] (setting [9]). Moreover, the “Sweet impression (1-10) Specimen (Sucrose + Test substance)” value in the experiment with group of experts [3] (5% sucrose + 1 ppm test substance, rating 1 [not sweet] to 10 [extremely sweet]) is 6.1; with group of experts [3] (5% sucrose + 5 ppm test substance, rating 1 to 10) it was 7.1; with group of experts [3] (5% sucrose + 7 ppm test substance, rating 1 to 10), 7.3; in the experiment with group of experts [3] (setting [10]) it was 7.8. In addition, in the experiment with group of experts [3] (5 ppm, 5% sucrose), the “Intensification of the sweet impression compared to 10 ppm deoxy hesperetin dihydrochalcone (in words)” value is on record as “clearly higher”. In the experiment with group of experts [3] (10 ppm, 5% sucrose), the “Intensification of the sweet impression compared to the same amount of deoxy hesperetin dihydrochalcone (in words)” value is reported as “remarkable intensification”. Also, in the experiment with group of experts [4], the “Cooling effect (in words)” value was “slightly improvement”. The “Perception of cooling impression (in words)” value in the experiment with group of experts [4] is given as “faster”. Moreover, the “Sweet impression compared to the 1.5 wt % aqueous sucrose solution” value with group of 30 experts is given as “remarkably weaker”. Further, in the experiment on group of experts [5], the “Influence on the taste profile of chicken flavour (chicken meat note, boiled note, bony, light sour)” value is reported as “without a negative influence”. Also, the “Mouth fullness of chicken flavour (in words)” value in the experiment on group of experts [5] is given as “remarkably enhance”. Moreover, the “Beginning of sweet impression (<2 sec)” value in the experiment on group of experts [6] (7% Sucrose-solution + 5 ppm) is recorded as 4.63; in the experiment with group of experts [6] (7% Sucrose-solution + 7 ppm), 4.78; with group of experts [6] (7% Sucrose-solution + 20 ppm), 4.49. In addition, the values for the Overall sweet impression with group of experts [6] (7% Sucrose-solution + 5 ppm), with group of experts [6] (7% Sucrose-solution + 7 ppm) and with group of experts [6] (7% Sucrose-solution + 20 ppm) were 5.24, 5.93 and 4.90, respectively. Also, the results for the “Sugar full flavour and taste” value with group of experts [6] (7% Sucrose-solution + 5 ppm), in the experiment with group of experts [6] (7% Sucrose-solution + 7 ppm) and in the experiment on group of experts [6] (7% Sucrose-solution + 20 ppm) were 4.26, 4.42 and 4.11, respectively. Further, the “Effect on the overall sweet impression (in words)” value with group of experts [6] (setting [11]) is on record as “increases”. The “Influence on the beginning of sweet impression (sweet impact) and the perceived sugar full flavour and taste (in words)” value with group of experts [6] (setting [11]) is listed as “positive influence”. For the same molecule, the “Reduction in bitter impression by adding 10 ppm of compound (I)” value with group of experts [7] (5 ppm Chininhydrochloride) is −25.0%; in the experiment with group of experts [7] (100 ppm Naringin, * sign.lev. α=0.05), −21.5%*; in the experiment on group of experts [7] (250 ppm Salicin, * sign.lev. α=0.05) it was −17.6%*; with group of experts [7] (300 ppm Theobromine), −12.4%; in the experiment with group of experts [7] (500 ppm Coffeine), −13.8%. Also, the “Bitter impression of bitter substance + compound (I) (average values)” value turned out to be 29.05 in the experiment with group of experts [7] (5 ppm Chininhydrochloride + 10 ppm compound (I), rating 1 to 100); 46.54 in the experiment with group of experts [7] (100 ppm Naringin + 10 ppm compound (I), rating 1 to 100); 51.40 in the experiment on group of experts [7] (250 ppm Salicin + 10 ppm compound (I), rating 1 to 100); 45.01 with group of experts [7] (300 ppm Theobromine + 10 ppm compound (I), rating 1 to 100); 37.46 with group of experts [7] (500 ppm Coffeine + 10 ppm compound (I), rating 1 [not bitter] to 100 [extremely bitter]). The “Reduction of the bitter impression of Chininhydrochloride (in words)” value with group of experts [7] (10 ppm) is “remarkable reduction”. Further, the “Reduction of the bitter impression of Naringin compared to deoxy hesperetin dihydrochalcone (in words)” value with group of experts [7] (Naringin, 10 ppm versus 50 ppm deoxy hesperetin dihydrochalcone) was “notable increase in the reduction of the bitter impression”.
For the molecule “deoxy hesperetin dihydrochalcone [reference compound]”, the figures for the “Intensification of the sweet impression” value in the experiment on group of experts [3] (setting [9]) and with group of experts [3] (5% sucrose + 25 ppm test substance) were 21.2% and 42%, respectively. The “Sweet impression (1-10) Specimen (Sucrose + Test substance)” value is listed as 6.4 in the experiment with group of experts [3] (setting [10]) and 6.9 in the experiment with group of experts [3] (5% sucrose + 25 ppm test substance, rating 1 to 10). Further, the “Reduction in bitter impression by adding 50 ppm of deoxy hesperetin dihydrochalcone” value with group of experts [7] (5 ppm Chininhydrochloride) is “+10.7%”; with group of experts [7] (100 ppm Naringin), −6.6%; in the experiment on group of experts [7] (250 ppm Salicin), −15.2%; in the experiment on group of experts [7] (500 ppm Coffeine) it was −11.3%. Moreover, the “Reduction of the bitter impression of Chininhydrochloride (in words)” value in the experiment on group of experts [7] (50 ppm) is “no reduction”. Moreover, in the experiment with group of experts [7] (50 ppm versus 10 ppm), the “Amount necessary, as factor of the amount of hesperetin dihydrochalcone (I), to obtain a similar reduction of the bitter impression” value worked out at 5.
With `COc1ccc(CCC(=O)c2ccccc2O)cc1O` [dihydrochalcone (2)], the “Taste (sweetening power) as presented in the publication” value in experiment [1] is reported as “intensively sweet tasting”.
With `OC[C@H]1O[C@@](CO)(O[C@H]2O[C@H](CO)[C@@H](O)[C@H](O)[C@H]2O)[C@@H](O)[C@@H]1O` [Sucrose, sucrose, reference compound], in the experiment on group of experts [6] (setting [12]), the “Beginning of sweet impression (<2 sec)” value is reported as 5.74; the Overall sweet impression is given as 6.36; the “Sugar full flavour and taste” value was 5.17.

B1: miraculin (protein, UniProt P13087 30-220, looked up)
Miraculin: DSAPNPVLDIDGEKLRTGTNYYIVPVLRDHGGGLTVSATTPNGTFVCPPRVVQTRKEVDHDRPLAFFPENPKEDVVRVSTDLNINFSAFMPCRWTSSTVWRLDKYDESTGQYFVTIGGVKGNPGPETISSWFKIEEFCGSGFYKLVFCPTVCGSCKVKCGDVGIYIDQKGRRRLALSDKPFAFEFNKTVYF
notes: protein that in the presence of acids transforms the sour impression into a sweet taste impression
With B1, the “Duration of the effect (sour impression transformed into sweet taste impression)” value in experiment [8] was 2 to 4 h.
